From patent publication US20230181584A1, “METHOD OF TREATING CANCER HAVING AN ACTIVATED HEDGEHOG PATHWAY” (Endeavor Biomedicines, Inc., priority 2021, published 2023)

How the values were obtained:
Gli1 activity = details: Daoy cells; as described in U.S. Pat. No. 9,000,023; read-out: IC50, inhibition of Gli1 activity; cited from earlier work
[1] = test system: extensive stage small cell lung cancer (SCLC); assay: HHBE: Phase Ib/2 study of taladegib with carboplatin and etoposide in extensive stage SCLC; type: in vivo, human; details: in combination with carboplatin and etoposide, N=26, RECIST v1.1
Excerpt: (§1) Approximately 192 study participants have received at least one dose of taladegib in sponsor-initiated and -controlled trials for the treatment of advanced cancers. The clinical trials were: • q. HHBB: Phase 1 dose-escalation study to evaluate the safety and tolerability of taladegib in patients with advanced cancer. • r. HHBE: Phase Ib/2 double-blind randomized study of the Human smoothened (hSmo) antagonist taladegib in combination with carboplatin and etoposide followed by taladegib versus carboplatin and etoposide plus placebo followed by placebo in patients with extensive stage small cell lung cancer (SCLC). • s. HHBH: Phase 1 study of taladegib in Japanese patients with advanced solid tumors. • t. HIPROC: An investigator-initiated Phase 1a/1b dose-escalation study of taladegib in combination with weekly intravenous paclitaxel in patients with advanced solid cancers. • u. HHBF: A Phase 1 ^14C metabolism study of 100 mg of taladegib in healthy subjects. • v. HHBG: A Phase 1 single ascending dose study of taladegib in healthy subjects.
(§2) Participants include approximately 156 advanced cancer patients from studies HHBB (N=95), HHBE (N=26), HHBH (N=19), HIPROC (N=16) and 36 healthy volunteers from studies HHBG (N=30) and HHBF (N=6).
(§3) The primary tumor type enrolled was BCC. Additionally, responses in medulloblastoma (monotherapy), SCLC (in combination with carboplatin and etoposide) and ovarian cancer (in combination with paclitaxel) were also observed.

advanced cancer [2] = assay: Clinical benefit across all completed studies of taladegib in advanced cancer (total); type: in vivo, human
Excerpt: as §1, §2, §3

[3] = Safety in clinical trials of taladegib (healthy volunteers and advanced cancer patients); type: in vivo, human
Excerpt: as §1, §2
As expected, AEs associated with chemotherapy were also observed when taladegib was used in combination with anti-neoplastic agents.

advanced solid tumors = assay: HHBH: Phase 1 study of taladegib in Japanese patients with advanced solid tumors; type: in vivo, human; details: N=19, RECIST v1.1
Excerpt: as §1, §2, §3

advanced solid cancers = assay: HIPROC: Phase 1a/1b dose-escalation study of taladegib with weekly intravenous paclitaxel; type: in vivo, human; details: in combination with weekly intravenous paclitaxel, N=16, RECIST v1.1
Excerpt: as §1, §2, §3

advanced cancer [4] = assay: HHBB: Phase 1 dose-escalation study of taladegib in patients with advanced cancer; type: in vivo, human; details: N=84, monotherapy, RECIST v1.1
Excerpt: as §1, §2, §3

advanced cancer [5] = assay: HHBB addendum; type: in vivo, human; details: N=11, RECIST v1.1
Excerpt: as §3

[6] = background statement on Hh pathway inhibitors; cited from earlier work
[7] = Total of all completed studies, N=156

Compound: CN(C(=O)c1ccc(F)cc1C(F)(F)F)C1CCN(c2nnc(-c3ccnn3C)c3ccccc23)CC1 [Taladegib, 4-Fluoro-N-methyl-N-(1-(4-(1-methyl-1H-pyrazol-5-yl)phthalazin-1-yl)piperidin-4-yl)-2-(trifluoromethyl)benzamide]
- IC50 (Gli1 activity): ~2.4 nM
- CR (complete response), number of patients [1]: 0 (0%)
- CR (complete response), percent of patients [1]: 0 (0%)
- Clinical Benefit, number of patients [1]: 21
- Clinical Benefit, percent of patients [1]: 81%
- PR (partial response), number of patients [1]: 14
- PR (partial response), percent of patients [1]: 54%
- CR (complete response), number of patients (advanced cancer [2]; [7]): 6
- CR (complete response), percent of patients (advanced cancer [2]; [7]): 4%
- Clinical Benefit, number of patients (advanced cancer [2]; [7]): 94
- Clinical Benefit, percent of patients (advanced cancer [2]; [7]): 60%
- PR (partial response), number of patients (advanced cancer [2]; [7]): 42
- PR (partial response), percent of patients (advanced cancer [2]; [7]): 27%
- Clinical (RECIST v1.1) responses by dose (advanced cancer [2]; across all four multiple-dose studies in patients): responses were observed at all doses
- Responses in SCLC (advanced cancer [2]; in combination with carboplatin and etoposide): observed
- Responses in ovarian cancer (advanced cancer [2]; in combination with paclitaxel): observed
- Responses in medulloblastoma (advanced cancer [2]; monotherapy): observed
- Safety profile ([3]; advanced cancer patients, monotherapy and combination with anti-neoplastic agents): manageable safety profile
- Most commonly observed AEs ([3]; as a monotherapy): nausea, diarrhea, dysgeusia, fatigue, decreased appetite, alopecia, vomiting, muscle spasm, constipation, weight decrease, and headache
- Important potential risks associated with treatment ([3]; on the basis of preclinical and clinical data and information for molecules in the same therapeutic class): hepatic injury, embryotoxicity and teratogenicity, and rhabdomyolysis
- CR (complete response), number of patients (advanced solid tumors): 0 (0%)
- CR (complete response), percent of patients (advanced solid tumors): 0 (0%)
- Clinical Benefit, number of patients (advanced solid tumors): 5
- Clinical Benefit, percent of patients (advanced solid tumors): 26%
- PR (partial response), number of patients (advanced solid tumors): 1
- PR (partial response), percent of patients (advanced solid tumors): 5%
- CR (complete response), number of patients (advanced solid cancers): 0 (0%)
- CR (complete response), percent of patients (advanced solid cancers): 0 (0%)
- Clinical Benefit, number of patients (advanced solid cancers): 10
- Clinical Benefit, percent of patients (advanced solid cancers): 62%
- PR (partial response), number of patients (advanced solid cancers): 4
- PR (partial response), percent of patients (advanced solid cancers): 25%
- CR (complete response), number of patients (advanced cancer [4]): 5
- CR (complete response), percent of patients (advanced cancer [4]): 6%
- Clinical Benefit, number of patients (advanced cancer [4]): 48
- Clinical Benefit, percent of patients (advanced cancer [4]): 57%
- PR (partial response), number of patients (advanced cancer [4]): 17
- PR (partial response), percent of patients (advanced cancer [4]): 20%
- CR (complete response), number of patients (advanced cancer [5]): 1
- CR (complete response), percent of patients (advanced cancer [5]): 9%
- Clinical Benefit, number of patients (advanced cancer [5]): 4
- Clinical Benefit, percent of patients (advanced cancer [5]): 36%
- PR (partial response), number of patients (advanced cancer [5]): 0

Compound: CC1=C2C[C@H]3[C@@H](CC[C@@H]4C[C@H](NS(C)(=O)=O)CC[C@@]43C)[C@@H]2CC[C@@]2(C1)O[C@@H]1C[C@H](C)CN[C@H]1[C@H]2C [saridegib]
- Toxicity [6]: unacceptable toxicity

Compound: CS(=O)(=O)c1ccc(C(=O)Nc2ccc(Cl)c(-c3ccccn3)c2)c(Cl)c1 [vismodegib]
- Toxicity [6]: unacceptable toxicity
